System: Human ciliated epithelium cells
Experiment: in-vitro ciliary activity / ciliary vibration test
Assay type: cell-based
Description: 1 test substance at a temperature of 37° C.

SMILES: N=C(NCCCCCCNC(=N)NC(=N)Nc1ccc(Cl)cc1)NC(=N)Nc1ccc(Cl)cc1 [chlorohexidine solution, chlorohexidine]
- ciliary activity / ciliary vibration: decrease

— US20060292244A1, “Use of pvp-iodine liposomes for treatment of acne” (priority 2003, published 2006)
